Experimental data: patent US9125913B2, “Bcl-2-selective apoptosis-inducing agents for the treatment of cancer and immune diseases” (AbbVie Inc., priority 2008, dated 2015)

Columns and labels:
[1] = system: FL5.12/Bcl-2 cells; assay: FL5.12/Bcl-2 cell viability assay; type: cell-based, murine; details: ratio of canine platelet EC50 to FL5.12/Bcl-2 EC50
How it was run: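 Murine IL-3-dependent FL5.12 cells stably overexpressing Bcl-2 were deprived of IL-3 (WEHI-3B conditioned medium) for 48 h, then exposed to various compound concentrations for 24 h at 37 °C. Viability read by CellTiter-Glo luminescence.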

[2] = system: GST-Bcl-2; assay: TR-FRET binding assay, Bcl-2; details: TR-FRET Ki values
How it was run: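 Ki values come from Wang's competitive-binding equation applied to TR-FRET signal (excitation 340/35 nm; emission 520/525 nm F-Bak peptide, 495/510 nm Tb antibody). Protein, probe and antibody incubated with compound 3 h at room temperature; dilution series began at 50 μM as 2× stock in 10% DMSO.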

Structure (SMILES) | Selectivity Ratio (Platelet EC50/FL5.12/Bcl-2 EC50) [1] | Binding selectivity ratio (Bcl-XL Ki/Bcl-2 Ki) [2]
CN1CCN(CCCNc2ccc(S(=O)(=O)NC(=O)c3ccc(N4CCN(CC5=C(c6ccc(Cl)cc6)CC(C)(C)CC5)CC4)cc3Oc3cccc4[nH]ccc34)cc2[N+](=O)[O-])CC1 [Example 99, 4-(4-{[2-(4-chlorophenyl)-4,4-dimethylcyclohex-1-en-1-yl]methyl}piperazin-1-yl)-2-(1H-indol-4-yloxy)-N-[(4-{[3-(4-methylpiperazin-1-yl)propyl]amino}-3-nitrophenyl)sulfonyl]benzamide] | 2440 | 138.3
CC1(C)CCC(CN2CCN(c3ccc(C(=O)NS(=O)(=O)c4ccc(NC5CCN(C6CCCC6)CC5)c([N+](=O)[O-])c4)c(Oc4ccc5[nH]ccc5c4)c3)CC2)=C(c2ccc(Cl)cc2)C1 [Example 26, 4-(4-{[2-(4-chlorophenyl)-4,4-dimethylcyclohex-1-en-1-yl]methyl}piperazin-1-yl)-N-({4-[(1-cyclopentylpiperidin-4-yl)amino]-3-nitrophenyl}sulfonyl)-2-(1H-indol-5-yloxy)benzamide] | >1429 | >4714.3
CN(C)CCOc1cccc(-c2ccc(Cl)cc2)c1CN1CCN(c2ccc(C(=O)NS(=O)(=O)c3ccc(NCCCN4CCCC4)c([N+](=O)[O-])c3)c(Oc3ccccc3)c2)CC1 [Example 123, 4-[4-({4′-chloro-3-[2-(dimethylamino)ethoxy]-1,1′-biphenyl-2-yl}methyl)piperazin-1-yl]-N-({3-nitro-4-[(3-pyrrolidin-1-ylpropyl)amino]phenyl}sulfonyl)-2-phenoxybenzamide] | 32 | 91.5
CN(C)CCOc1ccc(-c2ccc(Cl)cc2)c(CN2CCN(c3ccc(C(=O)NS(=O)(=O)c4ccc(NC5CCN(C)CC5)c([N+](=O)[O-])c4)c(Oc4ccccc4)c3)CC2)c1 [Example 133, 4-[4-({4′-chloro-4-[2-(dimethylamino)ethoxy]-1,1′-biphenyl-2-yl}methyl)piperazin-1-yl]-N-({4-[(1-methylpiperidin-4-yl)amino]-3-nitrophenyl}sulfonyl)-2-phenoxybenzamide] | 5 | 31.2
O=C(NS(=O)(=O)c1ccc(NCCCN2CCOCC2)c([N+](=O)[O-])c1)c1ccc(N2CCN(Cc3ccccc3-c3ccc(Cl)cc3)CC2)cc1Oc1ccccc1 [Example 155, 4-{4-[(4′-chloro-1,1′-biphenyl-2-yl)methyl]piperazin-1-yl}-N-({4-[(3-morpholin-4-ylpropyl)amino]-3-nitrophenyl}sulfonyl)-2-phenoxybenzamide] | >119 | 77.8
CN(C)CCCNc1ccc(S(=O)(=O)NC(=O)c2ccc(N3CCN(CC4=C(c5ccc(Cl)cc5)CC(C)(C)CC4)CC3)cc2Oc2ccc3[nH]ccc3c2)cc1[N+](=O)[O-] [Example 53, 4-(4-{[2-(4-chlorophenyl)-4,4-dimethylcyclohex-1-en-1-yl]methyl}piperazin-1-yl)-N-[(4-{[3-(dimethylamino)propyl]amino}-3-nitrophenyl)sulfonyl]-2-(1H-indol-5-yloxy)benzamide] | 1697 | 59.8
CC1(C)CCC(CN2CCN(c3ccc(C(=O)NS(=O)(=O)c4ccc(NCCCN5CCOCC5)c([N+](=O)[O-])c4)c(Oc4ccc5[nH]ccc5c4)c3)CC2)=C(c2ccc(Cl)cc2)C1 [Example 52, 4-(4-{[2-(4-chlorophenyl)-4,4-dimethylcyclohex-1-en-1-yl]methyl}piperazin-1-yl)-2-(1H-indol-5-yloxy)-N-({4-[(3-morpholin-4-ylpropyl)amino]-3-nitrophenyl}sulfonyl)benzamide] | >3164 | 333.9
CC1(C)CCC(CN2CCN(c3ccc(C(=O)NS(=O)(=O)c4ccc(NC5CCN(C6CCOCC6)CC5)c([N+](=O)[O-])c4)c(Oc4ccc5[nH]ccc5c4)c3)CC2)=C(c2ccc(Cl)cc2)C1 [Example 173, 4-(4-{[2-(4-chlorophenyl)-4,4-dimethylcyclohex-1-en-1-yl]methyl}piperazin-1-yl)-2-(1H-indol-5-yloxy)-N-({3-nitro-4-[(1-tetrahydro-2H-pyran-4-ylpiperidin-4-yl)amino]phenyl}sulfonyl)benzamide] | >4587 | 204.6
O=C(NS(=O)(=O)c1ccc(NCCCN2CCCC2)c([N+](=O)[O-])c1)c1ccc(N2CCN(Cc3cc(OCCN4CCOCC4)ccc3-c3ccc(Cl)cc3)CC2)cc1Oc1ccc2[nH]ccc2c1 [Example 136, 4-(4-{[4′-chloro-4-(2-morpholin-4-ylethoxy)-1,1′-biphenyl-2-yl]methyl}piperazin-1-yl)-2-(1H-indol-5-yloxy)-N-({3-nitro-4-[(3-pyrrolidin-1-ylpropyl)amino]phenyl}sulfonyl)benzamide] | >263 | 238.9
CN1CCC(Nc2ccc(S(=O)(=O)NC(=O)c3ccc(N4CCN(CC5=C(c6ccc(Cl)cc6)CC(C)(C)OC5)CC4)cc3Oc3cccc4[nH]ccc34)cc2[N+](=O)[O-])CC1 [Example 145, 4-(4-{[4-(4-chlorophenyl)-6,6-dimethyl-5,6-dihydro-2H-pyran-3-yl]methyl}piperazin-1-yl)-2-(1H-indol-4-yloxy)-N-({4-[(1-methylpiperidin-4-yl)amino]-3-nitrophenyl}sulfonyl)benzamide] | 730 | 401
CN(C)CCOc1ccc(-c2ccc(Cl)cc2)c(CN2CCN(c3ccc(C(=O)NS(=O)(=O)c4ccc(NCC5CCOCC5)c(S(=O)(=O)C(F)(F)F)c4)c(Oc4ccccc4)c3)CC2)c1 [Example 120, 4-[4-({4′-chloro-4-[2-(dimethylamino)ethoxy]-1,1′-biphenyl-2-yl}methyl)piperazin-1-yl]-2-phenoxy-N-({4-[(tetrahydro-2H-pyran-4-ylmethyl)amino]-3-[(trifluoromethyl)sulfonyl]phenyl}sulfonyl)benzamide] | >157 | 224.8
O=C(NS(=O)(=O)c1ccc(NCC2CCOCC2)c([N+](=O)[O-])c1)c1ccc(N2CCN(Cc3cc(OCCN4CCCC4)ccc3-c3ccc(Cl)cc3)CC2)cc1Oc1ccccc1 [Example 138, 4-(4-{[4′-chloro-4-(2-pyrrolidin-1-ylethoxy)-1,1′-biphenyl-2-yl]methyl}piperazin-1-yl)-N-({3-nitro-4-[(tetrahydro-2H-pyran-4-ylmethyl)amino]phenyl}sulfonyl)-2-phenoxybenzamide] | 616 | 574.9
CC1(C)CCC(CN2CCN(c3ccc(C(=O)NS(=O)(=O)c4ccc(NCCCN5CCCC5)c([N+](=O)[O-])c4)c(Oc4cccc5[nH]ccc45)c3)CC2)=C(c2cccc(C(F)(F)F)c2)C1 [Example 71, 4-[4-({4,4-dimethyl-2-[3-(trifluoromethyl)phenyl]cyclohex-1-en-1-yl}methyl)piperazin-1-yl]-2-(1H-indol-4-yloxy)-N-({3-nitro-4-[(3-pyrrolidin-1-ylpropyl)amino]phenyl}sulfonyl)benzamide] | >107 | >105.9
